The values that follow come from patent publication US7569578B2, “Heterocyclic anti-migraine agents” (Bristol-Meyers Squibb Company, priority 2003, dated 2009).

This test concerns the target T1, Human CGRP1 Receptor (Homo sapiens, UniProt O60894+Q16602).
T1 construct: endogenous in cells; host or cells: SK-N-MC cells (membrane homogenate)
The experiment in a line: CGRP Binding Assay ([125I]-CGRP radioligand displacement, SK-N-MC membrane homogenate). Here is the method:
Tissue Culture. SK-N-MC cells were grown at 37° C. in 5% CO2 as a monolayer in medium consisting of MEM with Earle's salts and L-glutamine (Gibco) supplemented with 10% fetal bovine serum (Gibco).
Cell Pellets. […] The cells were transferred from plates to polypropylene tubes (16×100 mm) and homogenized using a polytron. Homogenates were centrifuged at 32,000×g for 30 min. The pellets were resuspended in cold hypotonic lysis buffer with 0.1% mammalian protease inhibitor cocktail (Sigma) and assayed for protein concentration. The SK-N-MC homogenate was then aliquoted and stored at −80° C. until needed.
Radioligand Binding Assay. The compounds of invention were solubilized and carried through serial dilutions using 100% DMSO. Aliquots from the compound serial dilutions were further diluted 25 fold into assay buffer (50 mM Tris-Cl pH 7.5, 5 mM MgCl2, 0.005% Triton X-100) and transferred (volume 50 μl) into 96 well assay plates. […] SK-N-MC pellets were thawed, diluted in assay buffer with fresh 0.1% mammalian protease inhibitor cocktail (Sigma), and homogenized again. SK-N-MC homogenate (5 μg/well) was added in a volume of 100 μl. The assay plates were then incubated at room temperature for 2 h. Assays were stopped by addition of excess cold wash buffer (20 mM Tris-Cl pH 7.5, 0.1% BSA) immediately followed by filtration over glass fiber filters (Whatman GF/B) previously soaked in 0.5% PEI. Non-specific binding was defined with 1 μM beta-CGRP. Protein bound radioactivity was determined using a gamma or scintillation counter.
Background: Displacement assays read how much labelled ligand stays bound in the presence of the test substance.

Setting [1] is: [125I]-CGRP displacement, SK-N-MC homogenate, room temperature 2 h, read-out: Human CGRP1 Receptor IC50.

Structures are written as SMILES. Like-named read-outs stand apart in the source and are kept apart here.

T1 sequence (Q16602 23-461): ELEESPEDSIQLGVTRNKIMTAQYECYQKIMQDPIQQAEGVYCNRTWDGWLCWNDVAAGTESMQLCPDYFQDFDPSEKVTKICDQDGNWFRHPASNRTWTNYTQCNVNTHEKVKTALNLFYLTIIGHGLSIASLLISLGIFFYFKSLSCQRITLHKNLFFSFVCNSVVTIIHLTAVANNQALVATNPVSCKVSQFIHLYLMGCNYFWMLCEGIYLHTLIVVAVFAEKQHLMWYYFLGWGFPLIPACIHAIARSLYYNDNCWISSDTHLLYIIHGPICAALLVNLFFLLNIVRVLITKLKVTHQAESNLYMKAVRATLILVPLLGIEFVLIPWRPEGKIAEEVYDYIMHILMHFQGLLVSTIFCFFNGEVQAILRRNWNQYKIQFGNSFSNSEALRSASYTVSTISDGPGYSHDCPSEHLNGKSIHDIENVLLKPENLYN
T1 sequence (O60894 27-148): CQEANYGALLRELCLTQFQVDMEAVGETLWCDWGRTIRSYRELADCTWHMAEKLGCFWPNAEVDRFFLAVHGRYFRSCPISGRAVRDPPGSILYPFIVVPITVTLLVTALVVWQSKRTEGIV

In the case of `Cc1cc(CC(NC(=O)N2CCC(N3Cc4ccccc4NC3=O)CC2)c2nccn2Cc2ccccc2)cc2cn[nH]c12` (racemic) [Example 67, (±)-N-(1-(1-Benzyl-1H-imidazol-2-yl)-2-(7-methyl-1H-indazol-5-yl)ethyl)-4-(2-oxo-1,2-dihydroquinazolin-3(4H)-yl)piperidine-1-carboxamide], the IC50 is less than 10 nM.
Regarding `Cc1cc(CC(NC(=O)N2CCC(N3Cc4ccccc4NC3=O)CC2)c2nccn2Cc2cccc(F)c2)cc2cn[nH]c12` (racemic) [Example 68, (±)-N-(1-(1-(3-Fluorobenzyl)-1H-imidazol-2-yl)-2-(7-methyl-1H-indazol-5-yl)ethyl)-4-(2-oxo-1,2-dihydroquinazolin-3(4H)-yl)piperidine-1-carboxamide], under setting [1], the IC50 is less than 10 nM.
For `Cc1cc(CC(NC(=O)N2CCC(N3Cc4ccccc4NC3=O)CC2)c2nccn2Cc2cc(F)cc(F)c2)cc2cn[nH]c12` (racemic) [Example 69, (±)-N-(1-(1-(3,5-Difluorobenzyl)-1H-imidazol-2-yl)-2-(7-methyl-1H-indazol-5-yl)ethyl)-4-(2-oxo-1,2-dihydroquinazolin-3(4H)-yl)piperidine-1-carboxamide], the IC50 under setting [1] was less than 10 nM.
On the same count and under the same terms, the result for `Cc1cc(CC(NC(=O)N2CCC(N3Cc4ccccc4NC3=O)CC2)c2nccn2CCc2ccccc2)cc2cn[nH]c12` (racemic) [Example 70, (±)-N-(2-(7-Methyl-1H-indazol-5-yl)-1-(1-phenethyl-1H-imidazol-2-yl)ethyl)-4-(2-oxo-1,2-dihydroquinazolin-3(4H)-yl)piperidine-1-carboxamide] reads less than 10 nM; that for `Cc1cc(CC(NC(=O)N2CCC(N3Cc4ccccc4NC3=O)CC2)c2nccn2Cc2ccccc2F)cc2cn[nH]c12` (racemic) [Example 71, (±)-N-(1-(1-(2-Fluorobenzyl)-1H-imidazol-2-yl)-2-(7-methyl-1H-indazol-5-yl)ethyl)-4-(2-oxo-1,2-dihydroquinazolin-3(4H)-yl)piperidine-1-carboxamide], less than 10 nM.
As to `Cc1cc(CC(NC(=O)N2CCC(N3Cc4ccccc4NC3=O)CC2)c2nccn2Cc2ccc(F)cc2)cc2cn[nH]c12` (racemic) [Example 72, (±)-N-(1-(1-(4-Fluorobenzyl)-1H-imidazol-2-yl)-2-(7-methyl-1H-indazol-5-yl)ethyl)-4-(2-oxo-1,2-dihydroquinazolin-3(4H)-yl)piperidine-1-carboxamide], the IC50 under setting [1] was less than 10 nM.
With `Cc1cc(CC(NC(=O)N2CCC(N3Cc4ccccc4NC3=O)CC2)c2nccn2Cc2ccncc2)cc2cn[nH]c12` (racemic) [Example 73, (±)-N-(2-(7-Methyl-1H-indazol-5-yl)-1-(1-(pyridin-4-ylmethyl)-1H-imidazol-2-yl)ethyl)-4-(2-oxo-1,2-dihydroquinazolin-3(4H)-yl)piperidine-1-carboxamide], the IC50 under setting [1] is less than 10 nM.
With `Cc1cc(CC(NC(=O)N2CCC(N3Cc4ccccc4NC3=O)CC2)c2nccn2Cc2cccc(C#N)c2)cc2cn[nH]c12` (racemic) [Example 74, (±)-N-(1-(1-(3-Cyanobenzyl)-1H-imidazol-2-yl)-2-(7-methyl-1H-indazol-5-yl)ethyl)-4-(2-oxo-1,2-dihydroquinazolin-3(4H)-yl)piperidine-1-carboxamide], the IC50 under setting [1] is less than 10 nM.
Turning to `Cc1cc(CC(NC(=O)N2CCC(N3Cc4ccccc4NC3=O)CC2)c2nccn2Cc2ccc(C(C)(C)C)cc2)cc2cn[nH]c12` (racemic) [Example 75, (±)-N-(1-(1-(4-tert-Butylbenzyl)-1H-imidazol-2-yl)-2-(7-methyl-1H-indazol-5-yl)ethyl)-4-(2-oxo-1,2-dihydroquinazolin-3(4H)-yl)piperidine-1-carboxamide], the IC50 under setting [1] was less than 10 nM.
With `Cc1cc(CC(NC(=O)N2CCC(N3Cc4ccccc4NC3=O)CC2)c2nccn2Cc2cccc(C(=O)O)c2)cc2cn[nH]c12` (racemic) [Example 76, (±)-3-((2-(2-(7-Methyl-1H-indazol-5-yl)-1-(4-(2-oxo-1,2-dihydroquinazolin-3(4H)-yl)piperidine-1-carboxamido)ethyl)-1H-imidazol-1-yl)methyl)benzoic acid], the IC50 under setting [1] is less than 10 nM.
Regarding `Cc1cc(CC(NC(=O)N2CCC(N3Cc4ccccc4NC3=O)CC2)c2nccn2Cc2cccc(C(N)=O)c2)cc2cn[nH]c12` (racemic) [Example 77, (±)-N-(1-(1-(3-Carbamoylbenzyl)-1H-imidazol-2-yl)-2-(7-methyl-1H-indazol-5-yl)ethyl)-(2-oxo-1,2-dihydroquinazolin-3(4H)-yl)piperidine-1-carboxamide], under setting [1], the IC50 was less than 10 nM.
For the molecule `Cc1cc(CC(NC(=O)N2CCC(N3Cc4ccccc4NC3=O)CC2)c2nccn2-c2ccccc2[N+](=O)[O-])cc2cn[nH]c12` (racemic) [Example 79, (±)-N-(2-(7-Methyl-1H-indazol-5-yl)-1-(1-(2-nitrophenyl)-1H-imidazol-2-yl)ethyl)-4-(2-oxo-1,2-dihydroquinazolin-3(4H)-yl)piperidine-1-carboxamide], under setting [1], the IC50 is less than 10 nM.
The same measure, in the same setting: the value for `Cc1cc(CC(NC(=O)N2CCC(N3Cc4cccc(F)c4NC3=O)CC2)c2nnn[nH]2)cc2cn[nH]c12` (racemic) [Example 80, (±)-4-(8-Fluoro-2-oxo-1,2-dihydroquinazolin-3 [4H]-yl)-N-(2{7-methyl-1H-indazol-5-yl}-1-{1H-tetrazol-5-yl}ethyl)piperidin-1-carboxamide] was 100 to 1000 nM.
In the case of `Cc1cc(CC(NC(=O)N2CCC(N3Cc4cccc(F)c4NC3=O)CC2)c2nnnn2CC2CCNCC2)cc2cn[nH]c12` (racemic) [Example 81, (±)-4-(8-Fluoro-2-oxo-1,2-dihydroquinazolin-3(4H)-yl)-N-(2-[7-methyl-1H-indazol-5-yl]-1-[1-(piperidin-4-ylmethyl)-1H-tetrazol-5-yl]ethyl)piperidin-1-carboxamide], under setting [1], the IC50 is less than 10 nM.
`Cc1cc(CC(NC(=O)N2CCC(N3Cc4cccc(F)c4NC3=O)CC2)c2nnn(CC3CCNCC3)n2)cc2cn[nH]c12` (racemic) [Example 82, (±)-4-(8-Fluoro-2-oxo-1,2-dihydroquinazolin-3(4H)-yl)-N-(2-[7-methyl-1H-indazol-5-yl]-1-[2-(piperidin-4-ylmethyl)-1H-tetrazol-5-yl]ethyl)piperidin-1-carboxamide]: the IC50 under setting [1] is 10 to 100 nM.
With `Cc1cc(CC(NC(=O)N2CCC(N3Cc4cccc(F)c4NC3=O)CC2)c2nnc3ccccn23)cc2cn[nH]c12` (racemic) [Example 83, (±)-N-(1-([1,2,4]Triazolo [4,3-a]pyridin-3-yl)-2-(7-methyl-1H-indazol-5-yl)ethyl)-4-(8-fluoro-2-oxo-1,2-dihydroquinazolin-3(4H)-yl)piperidine-1-carboxamide], the IC50 under setting [1] is less than 10 nM.
On to `Cc1cc(CC(NC(=O)N2CCC(N3Cc4ccccc4NC3=O)CC2)c2nnnn2CC(C)(C)C)cc2cn[nH]c12` (racemic) [Example 84, (±)-N-(2-(7-Methyl-1H-indazol-5-yl)-1-(1-neopentyl-1H-tetrazol-5-yl)ethyl)-4-(2-oxo-1,2-dihydroquinazolin-3(4H)-yl)piperidine-1-carboxamide], for which the IC50 under setting [1] was less than 10 nM.
With `Cc1cc(CC(NC(=O)N2CCC(N3Cc4ccccc4NC3=O)CC2)c2ncc(Br)[nH]2)cc2cn[nH]c12` (racemic) [Example 86, (±)-N-(1-(4-Bromo-1H-imidazol-2-yl)-2-(7-methyl-1H-indazol-5-yl)ethyl)-4-(2-oxo-1,2-dihydroquinazolin-3(4H)-yl)piperidine-1-carboxamide], the IC50 under setting [1] is less than 10 nM.
On to `Cc1cc(CC(NC(=O)N2CCC(N3Cc4ccccc4NC3=O)CC2)c2nc(Br)c(Br)[nH]2)cc2cn[nH]c12` (racemic) [Example 87, (±)-N-(1-(4,5-Dibromo-1H-imidazol-2-yl)-2-(7-methyl-1H-indazol-5-yl)ethyl)-4-(2-oxo-1,2-dihydroquinazolin-3(4H)-yl)piperidine-1-carboxamide], for which the 50% inhibitory concentration (IC50) under setting [1] was less than 10 nM.
On the same count and under the same terms, the value for `Cc1cc(CC(NC(=O)N2CCC(N3Cc4ccccc4NC3=O)CC2)c2ncc(Br)n2Cc2cc(F)cc(F)c2)cc2c[nH]nc12` (racemic) [Example 88, (±)-N-(1-(1-(3,5-Difluorobenzyl)-5-bromo-1H-imidazol-2-yl)-2-(7-methyl-2H-indazol-5-yl)ethyl)-4-(2-oxo-1,2-dihydroquinazolin-3(4H)-yl)piperidine-1-carboxamide] was less than 10 nM; that for `Cc1cn(Cc2cccc(F)c2)c(C(Cc2cc(C)c3[nH]ncc3c2)NC(=O)N2CCC(N3Cc4ccccc4NC3=O)CC2)n1` (racemic) [Example 89, (±)-N-(1-(1-(3-Fluorobenzyl)-4-methyl-1H-imidazol-2-yl)-2-(7-methyl-1H-indazol-5-yl)ethyl)-4-(2-oxo-1,2-dihydroquinazolin-3(4H)-yl)piperidine-1-carboxamide] was less than 10 nM.
Still for that read-out and setting: the value for `Cc1c[nH]c(C(Cc2cc(C)c3[nH]ncc3c2)NC(=O)N2CCC(N3Cc4ccccc4NC3=O)CC2)n1` (racemic) [Example 90, (±)-N-(1-(4-Methyl-1H-imidazol-2-yl)-2-(7-methyl-1H-indazol-5-yl)ethyl)-4-(2-oxo-1,2-dihydroquinazolin-3(4H)-yl)piperidine-1-carboxamide] was 100 to 1000 nM.

One may read the IC50 as the concentration at which inhibition is half-maximal.
